Test results: ChEMBL document CHEMBL1201862, “PubChem BioAssay data set” (2004)
Activity calls are given as the source filed them.

Columns and labels:
[1] = biological target: T1, Protein Tat (Human immunodeficiency virus type 1 group M subtype B (isolate HXB2)(HIV-1), UniProt P04608); assay type: functional;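 note: tat binding to TAR RNA read out by fluorescence polarization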
T1 sequence (P04608 whole entry): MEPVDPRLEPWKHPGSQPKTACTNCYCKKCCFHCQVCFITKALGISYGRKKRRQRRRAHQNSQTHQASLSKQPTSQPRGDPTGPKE

[2] = microbe, parasite or virus in culture; assay type: functional; settings: Mycobacterium tuberculosis
[3] = test system: H9c2; assay: cells; assay type: functional, cell-based; settings: Rattus norvegicus, H9c2, Myocardium;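 note: confirmatory concentration-response retest of ultra-high-throughput screening hits for modulation of myocardial damage; cell death induced by hydrogen peroxide oxidative stress; compound pretreatment for 60 min then peroxide exposure for 2 h; potency is for protecting the cells against peroxide damage rather than for killing them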
[4] = inhibitors of PGC1a acetylation in cells, dose response, cell-based, cherry-picked samples (AID 720514); assay type: functional;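 note: potency may reflect raised or lowered acetylation signal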
[5] = biological target: T2, Protein RecA (Mycobacterium tuberculosis, UniProt P9WHJ3); assay: Fluorescence Cell-Free Homogeneous Dose Retest to Identify Inhibitors of RecA-Intein Splicing Activity. [Related pubchem assays (depositor defined):AID2097, AID2223, AID489010, AID492950]; assay type: functional
T2 sequence (P9WHJ3 whole entry): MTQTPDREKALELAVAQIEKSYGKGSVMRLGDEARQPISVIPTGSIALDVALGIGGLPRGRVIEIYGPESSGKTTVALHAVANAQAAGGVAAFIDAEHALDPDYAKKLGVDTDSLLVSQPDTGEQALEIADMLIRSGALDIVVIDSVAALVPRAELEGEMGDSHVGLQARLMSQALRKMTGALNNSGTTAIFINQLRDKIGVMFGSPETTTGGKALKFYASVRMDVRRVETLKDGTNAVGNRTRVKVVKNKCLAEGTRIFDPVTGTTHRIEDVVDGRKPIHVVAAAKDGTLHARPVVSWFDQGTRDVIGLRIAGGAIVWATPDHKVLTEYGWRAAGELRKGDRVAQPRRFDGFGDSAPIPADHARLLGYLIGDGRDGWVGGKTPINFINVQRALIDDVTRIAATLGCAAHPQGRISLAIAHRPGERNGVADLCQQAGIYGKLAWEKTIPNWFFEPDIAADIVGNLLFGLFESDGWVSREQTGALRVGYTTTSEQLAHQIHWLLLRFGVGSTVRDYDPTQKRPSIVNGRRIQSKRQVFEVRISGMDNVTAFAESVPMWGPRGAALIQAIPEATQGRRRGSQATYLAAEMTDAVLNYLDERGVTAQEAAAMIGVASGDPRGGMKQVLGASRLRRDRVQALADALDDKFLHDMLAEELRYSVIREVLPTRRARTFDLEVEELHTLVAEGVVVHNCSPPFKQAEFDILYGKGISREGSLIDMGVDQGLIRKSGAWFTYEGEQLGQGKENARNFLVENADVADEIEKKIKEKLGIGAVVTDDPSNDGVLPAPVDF

[6] = biological target: T3, Replicative DNA helicase DnaB (Mycobacterium tuberculosis, UniProt P9WMR3); assay: DnaB intein splicing inhibitors, dose response, biochemical, cell-free fluorescence (AID 449749); assay type: functional
T3 sequence (P9WMR3 whole entry): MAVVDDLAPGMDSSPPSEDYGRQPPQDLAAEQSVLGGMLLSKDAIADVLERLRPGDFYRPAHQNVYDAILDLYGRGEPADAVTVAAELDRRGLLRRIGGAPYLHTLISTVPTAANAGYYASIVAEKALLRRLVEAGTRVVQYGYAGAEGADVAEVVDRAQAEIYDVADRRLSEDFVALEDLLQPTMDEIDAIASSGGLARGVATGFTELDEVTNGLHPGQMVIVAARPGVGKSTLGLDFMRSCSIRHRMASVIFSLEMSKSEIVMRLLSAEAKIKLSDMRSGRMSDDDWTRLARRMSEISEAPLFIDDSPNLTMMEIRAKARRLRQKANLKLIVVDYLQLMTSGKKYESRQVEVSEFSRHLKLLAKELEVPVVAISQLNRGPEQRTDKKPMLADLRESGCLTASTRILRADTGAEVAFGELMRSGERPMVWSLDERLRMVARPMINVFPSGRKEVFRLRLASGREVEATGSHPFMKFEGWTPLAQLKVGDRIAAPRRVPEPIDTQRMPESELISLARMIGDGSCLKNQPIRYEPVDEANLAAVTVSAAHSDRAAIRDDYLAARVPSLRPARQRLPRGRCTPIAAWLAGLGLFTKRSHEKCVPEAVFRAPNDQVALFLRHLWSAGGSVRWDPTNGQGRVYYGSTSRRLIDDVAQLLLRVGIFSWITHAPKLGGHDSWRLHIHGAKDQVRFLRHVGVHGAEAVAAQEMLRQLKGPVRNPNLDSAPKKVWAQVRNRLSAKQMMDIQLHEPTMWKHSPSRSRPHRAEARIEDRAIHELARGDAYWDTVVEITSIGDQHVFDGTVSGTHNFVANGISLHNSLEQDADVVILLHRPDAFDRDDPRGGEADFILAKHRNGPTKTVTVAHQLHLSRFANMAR

[7] = biological target: T4, Heat shock factor protein 1 (Mus musculus, UniProt P38532); assay: HSF1 potentiators in luciferase reporter cells, confirmation, cell-based, NIH3T3, luminescence, dose retest (AID 435004); assay type: functional;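 note: stress induced by proteasome inhibitor MG132 added 30 min after compound; luciferase reporter driven by HSF1 response element in NIH3T3 cells; actives raise luminescence as potentiators of the MG132 stress response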
T4 sequence (P38532 whole entry): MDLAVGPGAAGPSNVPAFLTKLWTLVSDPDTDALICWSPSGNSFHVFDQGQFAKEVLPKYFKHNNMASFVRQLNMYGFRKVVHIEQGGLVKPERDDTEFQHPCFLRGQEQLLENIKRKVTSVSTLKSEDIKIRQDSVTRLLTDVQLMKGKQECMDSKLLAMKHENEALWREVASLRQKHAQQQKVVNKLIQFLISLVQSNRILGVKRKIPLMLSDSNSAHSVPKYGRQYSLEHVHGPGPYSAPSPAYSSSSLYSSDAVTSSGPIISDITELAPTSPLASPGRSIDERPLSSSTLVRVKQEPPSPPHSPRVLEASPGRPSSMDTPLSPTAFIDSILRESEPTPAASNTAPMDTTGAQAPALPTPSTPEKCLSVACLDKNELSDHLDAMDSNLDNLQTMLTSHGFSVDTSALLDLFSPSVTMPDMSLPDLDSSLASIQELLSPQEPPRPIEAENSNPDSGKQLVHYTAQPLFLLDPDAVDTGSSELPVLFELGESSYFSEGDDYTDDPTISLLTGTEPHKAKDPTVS

[8] = biological target: T5, SUMO-activating enzyme (Homo sapiens, UniProt Q9UBT2); assay: SUMOylation inhibitor hit validation, confirmation, SUMOylation inhibitor project, biochemical, AlphaScreen (AID 2018); assay type: functional
T5 sequence (Q9UBE0 whole entry): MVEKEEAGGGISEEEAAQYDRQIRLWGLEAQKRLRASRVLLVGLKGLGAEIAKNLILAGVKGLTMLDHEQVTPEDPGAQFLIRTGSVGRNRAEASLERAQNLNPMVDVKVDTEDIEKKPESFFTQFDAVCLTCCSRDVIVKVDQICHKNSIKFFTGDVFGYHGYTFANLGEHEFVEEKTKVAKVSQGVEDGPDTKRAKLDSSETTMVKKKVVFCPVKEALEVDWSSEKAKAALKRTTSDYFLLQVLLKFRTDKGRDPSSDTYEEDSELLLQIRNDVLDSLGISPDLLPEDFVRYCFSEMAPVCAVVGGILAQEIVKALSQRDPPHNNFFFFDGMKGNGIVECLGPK
T5 sequence (Q9UBT2 whole entry): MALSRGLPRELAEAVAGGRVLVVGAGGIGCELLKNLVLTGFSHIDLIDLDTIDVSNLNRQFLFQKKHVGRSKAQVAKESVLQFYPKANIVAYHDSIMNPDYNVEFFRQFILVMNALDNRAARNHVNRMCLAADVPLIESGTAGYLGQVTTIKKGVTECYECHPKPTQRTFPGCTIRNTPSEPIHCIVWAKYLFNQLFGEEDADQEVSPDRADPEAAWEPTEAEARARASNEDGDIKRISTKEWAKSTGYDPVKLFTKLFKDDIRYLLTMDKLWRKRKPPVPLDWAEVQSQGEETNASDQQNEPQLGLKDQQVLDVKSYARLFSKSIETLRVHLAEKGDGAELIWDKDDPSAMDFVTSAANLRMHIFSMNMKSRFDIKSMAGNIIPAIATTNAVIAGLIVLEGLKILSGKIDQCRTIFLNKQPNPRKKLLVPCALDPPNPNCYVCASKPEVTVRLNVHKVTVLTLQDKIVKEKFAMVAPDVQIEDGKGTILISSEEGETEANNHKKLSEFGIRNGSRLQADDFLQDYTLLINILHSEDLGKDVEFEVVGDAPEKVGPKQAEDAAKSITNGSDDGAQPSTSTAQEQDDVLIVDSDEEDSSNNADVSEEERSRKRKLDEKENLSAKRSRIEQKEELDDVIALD

[9] = biological target: T5, SUMO-activating enzyme; assay: inhibitors of in vitro SUMOylation cascade, primary screen, biochemical, HTRF, uHTS (AID 2006); assay type: protein-complex assay
[10] = Luminescence Cell-Based Dose Response to Identify Activators of Luciferase Translation or Activity in H4-C Neuroglioblastoma Cells. [Related pubchem assays: 1829 (Project Summary), 1814 (Primary HTS)]; assay type: functional
[11] = test system: H4; assay: Luminescence Cell-Based Dose Response HTS to Identify Activators of 5'UTR Stem-Loop Driven Prion Protein mRNA Translation in H4 Neuroglioblastoma Cells. [Related pubchem assays: 1829 (Project Summary), 1814 (Primary HTS)]; assay type: functional; settings: Homo sapiens
[12] = Luminescence Cell-Based Dose Confirmation to Identify Activators of 5'UTR Stem-Loop Driven Alpha-Synuclein mRNA Translation in H4 Neuroglioblastoma Cells. [Related pubchem assays: 1829 (Project Summary), 1814 (Primary HTS)]; assay type: functional
[13] = Luminescence Cell-Based Dose Response to Identify Activators of 5'UTR Stem-Loop Driven Prion Protein mRNA Translation in H4-C Neuroglioblastoma Cells. [Related pubchem assays: 1829 (Project Summary), 1814 (Primary HTS)]; assay type: functional
[14] = THP-1 cell cytotoxicity, dose response, cytotoxicity control for Vif-APOBEC3G degradation inhibitor project, THP-1 cells (AID 1117359); assay type: functional; settings: Human immunodeficiency virus 1, THP-1
[15] = inhibitors of Bluetongue virus cytopathic effect, confirmation, arbovirus, BSR cells (AID 1250); assay type: functional;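 note: protection from viral cytopathic effect measured as cell viability by ATP luminescence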
[16] = Luminescence Cell-Based Dose Response HTS to Identify Activators of Luciferase Translation or Activity in H4 […] Cells. [Related pubchem assays: 1829 (Project Summary), 1814 (Primary HTS)]; assay type: functional
[17] = HepG2 cell cytotoxicity, dose response, cytotoxicity control, plate reader, dry powder samples (AID 1159569); assay type: functional, cell-based;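 note: inhibitor potency with signal falling toward the positive control level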
[18] = P. falciparum ATP4 D1247Y mutant growth inhibitors, dose response, NITD609-resistant line, SYBR Green, dry powder (AID 1159571); assay type: functional, cell-based;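 note: parasites synchronized at ring stage by sorbitol before testing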
[19] = P. falciparum Dd2 growth inhibitors, dose response, SYBR Green, cherry-picked samples (AID 1159567); assay type: functional, cell-based
[20] = P. falciparum 3D7-ScDHODH growth inhibitors, dose response, SYBR Green, dry powder samples (AID 1159570); assay type: functional, cell-based;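 note: parasite growth measured after 72 hours of compound exposure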
[21] = P. falciparum Dd2 growth inhibitors, dose response, SYBR Green, dry powder samples (AID 1159566); assay type: functional, cell-based;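 note: potency for growth inhibition with lower SYBR green DNA signal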

c1ccc(CN2CCN(CCCNc3ccc4nnc(-c5ccccc5)n4n3)CC2)cc1
IC50 [1]: > 100 µM (active) | CC50 [2]: 35.6 µM (active) | IC50 [3]: > 79 µM (inactive)

O=S(=O)(c1ccccc1)c1ncc(C(F)(F)F)cc1Cl
AC50 [4]: 11 µM (active) | EC50 [5]: 3.16 µM (active) | AC50 [6]: 18.4 µM (active) | EC50 [7]: 15.9 µM (active)

CCCCn1c(=O)[nH]c(=O)c2c1nc(-c1ccc(-c3ccc(F)cc3)o1)n2C
IC50 [8]: > 100 µM (inactive) | IC50 [9]: > 100 µM (inactive)

CCCCOc1[nH]cnc2c3cc(OC)ccc3nc1-2
EC50 [10]: 403 nM (active) | EC50 [11]: < 100 nM (active) | EC50 [12]: 239 nM (active) | EC50 [13]: 274 nM (active)

Cc1ccc(-c2cc(-c3ccc4c(c3)OCO4)c(C#N)c(N)n2)o1
IC50 [1]: 30.5 µM (inconclusive) | CC50 [14]: 24.7 µM (active)

Cc1ccc(-c2cc(C(F)(F)F)c(C#N)c(O)n2)cc1
IC50 [15]: 32.6 µM (active)

Cc1nn(-c2ccc(Cl)cc2)c(O)c1C(c1cccc(O)c1)c1c(C)[nH]n(-c2ccc(Cl)cc2)c1=O (centres undefined)
EC50 [5]: 0.897 µM (active) | IC50 [8]: 4.08 µM (active) | AC50 [6]: 1.36 µM (active) | IC50 [9]: 47.8 µM (active)

CCOC(=O)c1s/c(=N\C(=O)c2ccc(C)c(C)c2)n(C)c1C
EC50 [10]: 601 nM (active) | EC50 [12]: 718 nM (active) | EC50 [13]: 543 nM (active) | EC50 [16]: < 100 nM (active)

COc1ccc2c3c([nH]c2c1)[C@H](CO)N(Cc1ccncc1)CC31CN(Cc2ccc(-c3ccccn3)cc2)C1
AC50 [17]: 43.3 µM (active) | AC50 [18]: 2.8 µM (active) | AC50 [19]: 2.36 µM (active) | AC50 [20]: 3.42 µM (active) | AC50 [21]: 2.97 µM (active)

COc1ccc2c3c(n(C)c2c1)[C@H](CO)N(CC1CC1)CC31CN(C(=O)c2ccc3c(c2)OCO3)C1
AC50 [17]: > 100 µM (inactive) | AC50 [18]: 1.28 µM (active) | AC50 [19]: 1.85 µM (active) | AC50 [20]: 1.24 µM (active) | AC50 [21]: 1.26 µM (active)
